# Test results reported in ChEMBL document CHEMBL3286355, “New Hits as Antagonists of GPR103 Identified by HTS” (ACS Med Chem Lett, 2014).
# Assays:
# [1] = biological target: T1, Pyroglutamylated RF-amide peptide receptor (Homo sapiens, UniProt Q96P65); assay: Antagonist activity at human GPR103 receptor assessed as inhibition of inositol-1-phosphate production by cell-based assay; assay type: functional
# T1 sequence (Q96P65 whole entry): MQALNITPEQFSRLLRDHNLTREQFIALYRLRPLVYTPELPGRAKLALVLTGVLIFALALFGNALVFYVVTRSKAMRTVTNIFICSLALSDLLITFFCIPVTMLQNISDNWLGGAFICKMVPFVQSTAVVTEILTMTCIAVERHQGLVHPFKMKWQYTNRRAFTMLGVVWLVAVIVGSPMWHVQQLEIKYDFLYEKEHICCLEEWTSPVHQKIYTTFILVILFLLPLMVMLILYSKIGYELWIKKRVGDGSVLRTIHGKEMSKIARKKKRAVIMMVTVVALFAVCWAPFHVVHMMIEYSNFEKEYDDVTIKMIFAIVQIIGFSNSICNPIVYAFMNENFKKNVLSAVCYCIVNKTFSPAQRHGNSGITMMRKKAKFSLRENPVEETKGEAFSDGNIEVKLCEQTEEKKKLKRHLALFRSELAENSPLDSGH
# [2] = Distribution coefficient, log D of the compound at pH 7.4; details: octanol/water
# [3] = biological target: T1, Pyroglutamylated RF-amide peptide receptor; assay: Displacement of [125I]-QRFP43 from human GPR103 receptor overexpressed in HEK membranes after 90 mins by liquid scintillation counting; assay type: cell membranes
# [4] = Dissociation constant, pKa of the compound; assay type: physicochemical
Compound,IC50 [1] [nM],logD [2],IC50 [3] [nM],pKa [4]
COc1ccc(NC(=N)c2cc(Br)cs2)cc1CSC1CCCC1,158,4.7,–,–
COc1ccc(NC(=N)c2ccc(Br)s2)cc1CSC1CCCC1,20,> 5,126,–
COc1ccc(Cl)cc1NS(=O)(=O)c1ccc(OC)c2c1CC[C@@H](N(C)C)C2,79.4,2.3,79.4,10.5
COc1ccc(NC(=O)c2cccs2)cc1CSC1CCCC1,7940,> 4.2,> 31600,–
N=C(Nc1ccc(OC(F)(F)F)c(CSC2CCCC2)c1)c1cccs1,2000,> 4.8,–,–
COc1ccc(NC(=N)c2nccs2)cc1CSC1CCCC1,2510,4,25100,–
COc1ccc(Nc2ccccn2)cc1CSC1CCCC1,12600,4.6,> 31600,–
CCC(=N)Nc1ccc(OC)c(CSC2CCCC2)c1,> 39800,1.2,–,–
N=C(Nc1ccc(F)c(CSC2CCCC2)c1)c1cccs1,501,> 3.9,1260,–
C/N=C(\c1cccs1)N(C)c1ccc(OC)c(CSC2CCCC2)c1,> 39800,1.9,–,–
C/N=C(/Nc1ccc(OC)c(CSC2CCCC2)c1)c1cccs1,251,3.1,631,–
N=C(Nc1cccc(CSC2CCCC2)c1)c1cccs1,794,3.8,2510,–
COc1ccc(NC(=N)c2cc(C)cs2)cc1CSC1CCCC1,63.1,3.7,100,–
Cc1ccc(NC(=N)c2cccs2)cc1CSC1CCCC1,1580,> 3.8,10000,–
Cc1cc2nc(NC(=N)N)nc(C)c2cc1C,2510,< 0.6,5010,9.3
N=C(Nc1ccc(Cl)c(CSC2CCCC2)c1)c1cccs1,1000,3.9,3980,–

# Now from value to molecule:
IC50 [1] [nM],logD [2],IC50 [3] [nM],pKa [4],Compound
1000,2.8,3980,–,COc1ccc(C(=N)Nc2ccccc2)cc1CSC1CCCC1
1580,2.6,7940,–,COc1ccc(NC(=N)c2ccccc2)cc1CSc1ccccc1
1580,2.9,–,–,COc1ccc(NC(=N)c2ccncc2)cc1CSC1CCCC1
6310,2.3,–,–,COc1ccc(NC(=N)Cc2ccccc2)cc1CSC1CCCC1
251,2.6,501,–,COc1ccc(NC(=N)c2cccnc2)cc1CSC1CCCC1
31600,–,–,–,COc1ccc(NC(=N)c2ccccc2)cc1CS(=O)(=O)C1CCCC1
20,2.5,25.1,–,COc1ccc(NC(=N)c2ccccc2)cc1CSC1CCCC1
316,3.8,200,–,COc1ccc(NC(=N)c2ccccc2)cc1CCC1CCCC1
12.6,3.7,39.8,–,COc1ccc(NC(=N)c2ccc(Cl)cc2)cc1CSC1CCCC1
2510,2.7,10000,–,COc1ccc(NC(=N)c2cccs2)cc1COC1CCCC1
50.1,3.3,158,8.1,COc1ccc(NC(=N)c2cccs2)cc1CSC1CCCC1
2510,1.1,7940,–,COc1ccc(NC(=N)c2ccccc2)cc1CNC(=O)C1CCCC1
100,2.5,126,–,COc1ccc(NC(=N)c2ccsc2)cc1CSC1CCCC1
> 39800,0.8,–,–,COc1ccc(NC(=N)c2ccccc2)cc1C[S+]([O-])C1CCCC1 (centres undefined)
